In ChEMBL document CHEMBL3046293, “Fungicidal Activities of -Methoxyphenylacetic Acid Derivatives” (2002):

Experiments:
Type in all cases: functional
Botrytis cinerea [1] = assay: Fungicidal activity against Botryotinia fuckeliana assessed as cucumber gray mold disease control at 125 ppm treated 24 hr before inoculation by preventive manner
Pyricularia oryzae [2] = assay: Fungicidal activity against Magnaporthe oryzae Cav. race 003 assessed as rice blast disease control at 500 ppm treated 24 hr before inoculation by preventive manner
Podosphaera fuliginea [3] = assay: Fungicidal activity against Podosphaera fuliginea assessed as cucumber powdery mildew disease control at 31.3 ppm treated 24 hr before inoculation by preventive manner
Pyricularia oryzae [4] = assay: Fungicidal activity against Magnaporthe oryzae Cav. race 003 assessed as rice blast disease control at 2 ppm foliar application for 24 hr before inoculation by preventive manner
Pyricularia oryzae [5] = assay: Fungicidal activity against Magnaporthe oryzae Cav. race 003 assessed as rice blast disease control at 31.3 ppm foliar application for 24 hr before inoculation by preventive manner
Pyricularia oryzae [6] = assay: Fungicidal activity against Magnaporthe oryzae Cav. race 003 assessed as rice blast disease control at 125 ppm foliar application for 24 hr before inoculation by preventive manner
Pyricularia oryzae [7] = assay: Fungicidal activity against Magnaporthe oryzae Cav. race 003 assessed as rice blast disease control at 7.8 ppm foliar application for 24 hr before inoculation by preventive manner
Botrytis cinerea [8] = assay: Fungicidal activity against Botryotinia fuckeliana assessed as cucumber gray mold disease control at 125 ppm foliar application 24 hr before inoculation by preventive manner
Botrytis cinerea [9] = assay: Fungicidal activity against Botryotinia fuckeliana assessed as cucumber gray mold disease control at 125 ppm foliar application 24 hr after inoculation by curative manner
Botrytis cinerea [10] = assay: Fungicidal activity against Botryotinia fuckeliana assessed as cucumber gray mold disease control at 7.8 ppm foliar application 24 hr after inoculation by curative manner
Botrytis cinerea [11] = assay: Fungicidal activity against Botryotinia fuckeliana assessed as cucumber gray mold disease control at 31.3 ppm foliar application 24 hr after inoculation by curative manner
Botrytis cinerea [12] = assay: Fungicidal activity against Botryotinia fuckeliana assessed as cucumber gray mold disease control at 2 ppm foliar application 24 hr after inoculation by curative manner
Botrytis cinerea [13] = assay: Fungicidal activity against Botryotinia fuckeliana assessed as cucumber gray mold disease control at 7.8 ppm foliar application 24 hr before inoculation by preventive manner
Botrytis cinerea [14] = assay: Fungicidal activity against Botryotinia fuckeliana assessed as cucumber gray mold disease control at 31.3 ppm foliar application 24 hr before inoculation by preventive manner
Botrytis cinerea [15] = assay: Fungicidal activity against Botryotinia fuckeliana assessed as cucumber gray mold disease control at 2 ppm foliar application 24 hr before inoculation by preventive manner
Podosphaera fuliginea [16] = assay: Fungicidal activity against Podosphaera fuliginea assessed as cucumber powdery mildew control at 0.5 ppm foliar application 24 hr after inoculation by curative manner
Blumeria graminis [17] = assay: Fungicidal activity against Blumeria graminis f. sp. tritici assessed as wheat powdery mildew disease control at 2 ppm foliar application for 24 hr before inoculation by preventive manner
Blumeria graminis [18] = assay: Fungicidal activity against Blumeria graminis f. sp. tritici assessed as wheat powdery mildew disease control at 125 ppm foliar application for 24 hr after inoculation by curative manner
[19] = tested on: Pseudoperonospora cubensis; assay: Fungicidal activity against Pseudoperonospora cubensis assessed as cucumber downy mildew disease control at 31.3 ppm foliar application 24 hr before inoculation onto the adaxial(treated) surface of leaf by preventive manner
Thanatephorus cucumeris [20] = assay: Fungicidal activity against Thanatephorus cucumeris assessed as rice sheath blight disease control at 2 ppm foliar application for 24 hr after inoculation by curative manner
Thanatephorus cucumeris [21] = assay: Fungicidal activity against Thanatephorus cucumeris assessed as rice sheath blight disease control at 2 ppm foliar application for 24 hr before inoculation by preventive manner
[22] = tested on: Pseudoperonospora cubensis; assay: Fungicidal activity against Pseudoperonospora cubensis assessed as cucumber downy mildew disease control at 7.8 ppm foliar application 24 hr before inoculation onto the abaxial(treated) surface of leaf by preventive manner
Blumeria graminis [23] = assay: Fungicidal activity against Blumeria graminis f. sp. tritici assessed as wheat powdery mildew disease control at 125 ppm foliar application for 24 hr before inoculation by preventive manner
Blumeria graminis [24] = assay: Fungicidal activity against Blumeria graminis f. sp. tritici assessed as wheat powdery mildew disease control at 7.8 ppm foliar application for 24 hr before inoculation by preventive manner
Podosphaera fuliginea [25] = assay: Fungicidal activity against Podosphaera fuliginea assessed as cucumber powdery mildew control at 7.8 ppm foliar application 24 hr after inoculation by curative manner
Thanatephorus cucumeris [26] = assay: Fungicidal activity against Thanatephorus cucumeris assessed as rice sheath blight disease control at 31.3 ppm foliar application for 24 hr after inoculation by curative manner
Thanatephorus cucumeris [27] = assay: Fungicidal activity against Thanatephorus cucumeris assessed as rice sheath blight disease control at 7.8 ppm foliar application for 24 hr before inoculation by preventive manner
Thanatephorus cucumeris [28] = assay: Fungicidal activity against Thanatephorus cucumeris assessed as rice sheath blight disease control at 125 ppm foliar application for 24 hr after inoculation by curative manner
[29] = tested on: Pseudoperonospora cubensis; assay: Fungicidal activity against Pseudoperonospora cubensis assessed as cucumber downy mildew disease control at 31.3 ppm foliar application 24 hr before inoculation onto the abaxial(treated) surface of leaf by preventive manner
Podosphaera fuliginea [30] = assay: Fungicidal activity against Podosphaera fuliginea assessed as cucumber powdery mildew control at 0.125 ppm foliar application 24 hr after inoculation by curative manner
Thanatephorus cucumeris [31] = assay: Fungicidal activity against Thanatephorus cucumeris assessed as rice sheath blight disease control at 31.3 ppm foliar application for 24 hr before inoculation by preventive manner
[32] = tested on: Pseudoperonospora cubensis; assay: Fungicidal activity against Pseudoperonospora cubensis assessed as cucumber downy mildew disease control at 125 ppm foliar application 24 hr before inoculation onto the adaxial(treated) surface of leaf by preventive manner
Thanatephorus cucumeris [33] = assay: Fungicidal activity against Thanatephorus cucumeris assessed as rice sheath blight disease control at 125 ppm foliar application for 24 hr before inoculation by preventive manner
Thanatephorus cucumeris [34] = assay: Fungicidal activity against Thanatephorus cucumeris assessed as rice sheath blight disease control at 7.8 ppm foliar application for 24 hr after inoculation by curative manner
[35] = tested on: Pseudoperonospora cubensis; assay: Fungicidal activity against Pseudoperonospora cubensis assessed as cucumber downy mildew disease control at 7.8 ppm foliar application 24 hr after inoculation by curative manner
Blumeria graminis [36] = assay: Fungicidal activity against Blumeria graminis f. sp. tritici assessed as wheat powdery mildew disease control at 31.3 ppm foliar application for 24 hr after inoculation by curative manner
[37] = tested on: Pseudoperonospora cubensis; assay: Fungicidal activity against Pseudoperonospora cubensis assessed as cucumber downy mildew disease control at 125 ppm foliar application 24 hr before inoculation onto the abaxial(treated) surface of leaf by preventive manner
[38] = tested on: Pseudoperonospora cubensis; assay: Fungicidal activity against Pseudoperonospora cubensis assessed as cucumber downy mildew disease control at 125 ppm foliar application 24 hr after inoculation by curative manner
Blumeria graminis [39] = assay: Fungicidal activity against Blumeria graminis f. sp. tritici assessed as wheat powdery mildew disease control at 7.8 ppm foliar application for 24 hr after inoculation by curative manner
[40] = tested on: Pseudoperonospora cubensis; assay: Fungicidal activity against Pseudoperonospora cubensis assessed as cucumber downy mildew disease control at 2 ppm foliar application 24 hr before inoculation onto the abaxial(treated) surface of leaf by preventive manner
[41] = tested on: Pseudoperonospora cubensis; assay: Fungicidal activity against Pseudoperonospora cubensis assessed as cucumber downy mildew disease control at 7.8 ppm foliar application 24 hr before inoculation onto the adaxial(treated) surface of leaf by preventive manner
[42] = tested on: Pseudoperonospora cubensis; assay: Fungicidal activity against Pseudoperonospora cubensis assessed as cucumber downy mildew disease control at 31.3 ppm foliar application 24 hr after inoculation by curative manner
Podosphaera fuliginea [43] = assay: Fungicidal activity against Podosphaera fuliginea assessed as cucumber powdery mildew control at 2 ppm foliar application 24 hr before inoculation by preventive manner
Blumeria graminis [44] = assay: Fungicidal activity against Blumeria graminis f. sp. tritici assessed as wheat powdery mildew disease control at 31.3 ppm foliar application for 24 hr before inoculation by preventive manner
[45] = tested on: Pseudoperonospora cubensis; assay: Fungicidal activity against Pseudoperonospora cubensis assessed as cucumber downy mildew disease control at 2 ppm foliar application 24 hr after inoculation by curative manner
[46] = tested on: Pseudoperonospora cubensis; assay: Fungicidal activity against Pseudoperonospora cubensis assessed as cucumber downy mildew disease control at 2 ppm foliar application 24 hr before inoculation onto the adaxial(treated) surface of leaf by preventive manner
Podosphaera fuliginea [47] = assay: Fungicidal activity against Podosphaera fuliginea assessed as cucumber powdery mildew control at 0.5 ppm foliar application 24 hr before inoculation by preventive manner
Blumeria graminis [48] = assay: Fungicidal activity against Blumeria graminis f. sp. tritici assessed as wheat powdery mildew disease control at 2 ppm foliar application for 24 hr after inoculation by curative manner
Podosphaera fuliginea [49] = assay: Fungicidal activity against Podosphaera fuliginea assessed as cucumber powdery mildew control at 2 ppm foliar application 24 hr after inoculation by curative manner
Podosphaera fuliginea [50] = assay: Fungicidal activity against Podosphaera fuliginea assessed as cucumber powdery mildew control at 0.125 ppm foliar application 24 hr before inoculation by preventive manner
Podosphaera fuliginea [51] = assay: Fungicidal activity against Podosphaera fuliginea assessed as cucumber powdery mildew control at 7.8 ppm foliar application 24 hr before inoculation by preventive manner
Blumeria graminis [52] = assay: Fungicidal activity against Blumeria graminis f. sp. tritici assessed as wheat powdery mildew disease control at 0.5 ppm foliar application for 24 hr after inoculation by curative manner
Blumeria graminis [53] = assay: Fungicidal activity against Blumeria graminis f. sp. tritici assessed as wheat powdery mildew disease control at 0.5 ppm foliar application for 24 hr before inoculation by preventive manner

SMILES: CCNC(=O)C(OC)c1cccc(COc2cc(C)ccc2C)c1 (stereo not given)
- Activity (Botrytis cinerea [1]): 50%
- Activity (Pyricularia oryzae [2]): <90%
- Activity (Podosphaera fuliginea [3]): 90%

SMILES: C/C(=N/Nc1nc(C)cc(C)n1)c1ccccc1C [FERIMZONE]
- Activity (Pyricularia oryzae [4]): 30%
- Activity (Pyricularia oryzae [5]): 90%
- Activity (Pyricularia oryzae [6]): 97%
- Activity (Pyricularia oryzae [7]): 50%

SMILES: CC(C)NC(=O)N1CC(=O)N(c2cc(Cl)cc(Cl)c2)C1=O [IPRODIONE]
- Activity (Botrytis cinerea [8]): 100%
- Activity (Botrytis cinerea [9]): 80%
- Activity (Botrytis cinerea [10]): 60%
- Activity (Botrytis cinerea [11]): 70%
- Activity (Botrytis cinerea [12]): 20%
- Activity (Botrytis cinerea [13]): 50%
- Activity (Botrytis cinerea [14]): 100%
- Activity (Botrytis cinerea [15]): 20%

SMILES: CO/N=C(/C(=O)OC)c1ccccc1COc1ccccc1C [KRESOXIM-METHYL]
- Activity (Podosphaera fuliginea [16]): 80%
- Activity (Blumeria graminis [17]): 30%
- Activity (Botrytis cinerea [8]): 50%
- Activity (Blumeria graminis [18]): 90%
- Activity [19]: 97%
- Activity (Thanatephorus cucumeris [20]): 0%
- Activity (Thanatephorus cucumeris [21]): 30%
- Activity [22]: 0%
- Activity (Blumeria graminis [23]): 90%
- Activity (Blumeria graminis [24]): 50%
- Activity (Podosphaera fuliginea [25]): 100%
- Activity (Thanatephorus cucumeris [26]): 30%
- Activity (Thanatephorus cucumeris [27]): 30%
- Activity (Thanatephorus cucumeris [28]): 50%
- Activity [29]: 0%
- Activity (Podosphaera fuliginea [30]): 50%
- Activity (Thanatephorus cucumeris [31]): 30%
- Activity (Botrytis cinerea [9]): 30%
- Activity (Botrytis cinerea [10]): 0%
- Activity (Pyricularia oryzae [4]): 30%
- Activity [32]: 97%
- Activity (Thanatephorus cucumeris [33]): 50%
- Activity (Thanatephorus cucumeris [34]): 0%
- Activity (Pyricularia oryzae [5]): 70%
- Activity [35]: 0%
- Activity (Blumeria graminis [36]): 90%
- Activity (Botrytis cinerea [11]): 10%
- Activity [37]: 30%
- Activity (Botrytis cinerea [12]): 0%
- Activity [38]: 30%
- Activity (Blumeria graminis [39]): 70%
- Activity [40]: 0%
- Activity [41]: 97%
- Activity [42]: 0%
- Activity (Podosphaera fuliginea [43]): 80%
- Activity (Botrytis cinerea [13]): 50%
- Activity (Blumeria graminis [44]): 70%
- Activity [45]: 0%
- Activity [46]: 97%
- Activity (Podosphaera fuliginea [47]): 20%
- Activity (Blumeria graminis [48]): 50%
- Activity (Podosphaera fuliginea [49]): 90%
- Activity (Podosphaera fuliginea [50]): 0%
- Activity (Botrytis cinerea [14]): 50%
- Activity (Pyricularia oryzae [6]): 97%
- Activity (Botrytis cinerea [15]): 20%
- Activity (Pyricularia oryzae [7]): 50%
- Activity (Podosphaera fuliginea [51]): 97%

SMILES: CC(C)(C)C(=O)C(Oc1ccc(Cl)cc1)n1cncn1 (stereo not given) [TRIADIMEFON]
- Activity (Blumeria graminis [52]): 50%
- Activity (Blumeria graminis [17]): 50%
- Activity (Blumeria graminis [24]): 97%
- Activity (Blumeria graminis [53]): 30%
- Activity (Blumeria graminis [39]): 90%
- Activity (Blumeria graminis [44]): 97%
- Activity (Blumeria graminis [48]): 90%
